In one data set the test system is A2780-ADR (PGP). Briefly: Alamar Blue cell viability assay. Conditions: for IC50: A2780 ADR, 72 h; for RF: IC50 A2780-ADR (PGP) / IC50 A2780-parental. For orientation: The colour change of resazurin is a common sign of viable cells or microbes.
The test system of another data set is A2780-parental. Put plainly: Alamar Blue cell viability assay. Format: cell-based. Conditions: 72 h.
The subject of data set [1] is MCF-7 breast cancer cell line. Briefly: Antiproliferation study, MTT cell viability assay. Format: cell-based. Conditions: Homo sapiens, MCF7, 72 h, antiproliferative activity, MTT, 72 h; read-out: IC50 (μM) MCF-7 cell line. How it is done:
All assays were performed in triplicate for the determination of mean values reported. Compounds were assayed as the free bases isolated from reaction. The human breast tumour cell line MCF-7 was cultured in Eagles minimum essential medium in a […] atmosphere with 10% fetal bovine serum, 2 mM L-glutamine and 100 μg/mL penicillin/streptomycin. The medium was supplemented with 1% non-essential amino acids. MDA-MB-231 cells were maintained in Dulbecco's Modified Eagle's medium (DMEM), supplemented with 10% (v/v) Fetal bovine serum, 2 mM L-glutamine and 100 μg/mL penicillin/streptomycin (complete medium). Cells were trypsinised and seeded at a density of 2.5×10^4 cells/ml in a 96-well plate and incubated at 37° C., […] atmosphere for 24 h. […] Control wells contained the equivalent volume of the vehicle ethanol (1% v/v). The culture medium was then removed and the cells washed with 100 μL phosphate buffered saline (PBS) and 50 μL MTT added, to reach a final concentration of 1 mg/mL MTT added. Cells were incubated for 2 h in darkness at 37° C. At this point solubilization was begun through the addition of 200 μL DMSO and the cells maintained at room temperature in darkness for 20 min to ensure thorough colour diffusion before reading the absorbance. The absorbance value of control cells (no added compound) was set to 100% cell viability and from this graphs of absorbance versus cell density per well were prepared to assess cell viability and from these, graphs of percentage cell viability versus concentration of subject compound added were drawn.
For orientation: Formazan colour is commonly taken as a measure of viable cells.

Data set [2] can be described thus: Stability by HPLC at three pH values. Type of data set: physicochemical. As for the experimental part:
The stability of β-lactam compounds 4, 8 and 12 was assessed by HPLC at three different pH values. […] The half-lives of 8 and 12 were both greater than 24 hours at all pH values. The stability of three ester prodrug derivatives of 4, i.e. 29, 30 and 31, was also assessed (FIG. 6).

The next data set deals with HL-60 parental. Briefly: Alamar Blue cell viability assay. Type of data set: cell-based. Particulars: Homo sapiens, 72 h.
The next data set relates to HL-60-MDR(PGP). Briefly: Alamar Blue cell viability assay. Format: cell-based, human. Particulars: for IC50: Homo sapiens, HL60/MDR, HL-60-MDR(PGP), 72 h, Alamar blue, read-out: IC50; for RF: IC50 HL-60-MDR(PGP) / IC50 HL-60 parental.

By IC50 is commonly meant the concentration that gives 50% inhibition. For orientation: melting point means the temperature, or range, at which the solid turns liquid.

Description for A2780-ADR (PGP): (§1) Three drug resistant cell lines and respective parental cell lines were assessed. […] Western blot analysis confirmed the overexpression of p-glycoprotein and BCRP in respective cell lines.
(§2) Cells were exposed to multiple concentrations of the indicated compound for 72 h. Cell viability was assessed using the Alamar blue assay and respective IC50 values were calculated. The resistance factor (RF) was calculated by dividing the IC50 of the resistant cell line/IC50 of the parental cell line.
(§3) All cells were cultured in RPMI-1640 Glutamax medium supplemented with 10% FCS media, 100 units/ml penicillin and 100 μg/mIstreptomycin. Cells were maintained at 37° C. in 5% CO2 in a humidified incubator.
(§4) The reduction of Alamar Blue is proportional to the number of viable cells. Cells (200 μl) were plated in triplicate in a 96-well plates (K562, 100,000/ml; HL-60, 300,000/ml; A-2780 50,000/ml). A-2780 cells were plated 24 h prior to treatment. Suspension cells were plated in the log phase of growth and treated immediately. The cells were then treated with either medium alone, vehicle (1% ethanol v/v or 0.1% DMSO v/v) or with a range of concentrations of drug [0.001-10 μM]. After 72 h, Alamar Blue was added to each well (10% of final volume) and fluorescence was read using a 96-well fluorometer with excitation at 530 nm and emission of 590 nm. The blank solution consisted of medium and Alamar Blue and the blank solution was used to calibrate the spectrophotometer to zero absorbance. The relative cell viability (%) related to control wells and was calculated by [A]test/[A]control×100 where [A]test is the absorbance of the drug treated cells and [A]control the absorbance of the vehicle control treated cells. Dose response curves were plotted and IC50 values (concentration of drug resulting in 50% reduction in cell survival) were obtained using the commercial software package Prism (GraphPad Software, Inc., La Jolla, USA). Experiments were performed in triplicate on at least three separate occasions.
Description for A2780-parental: as §2
(§5) A2780-parental and A2780-ADR resistant cells were provided by the Beatson Institute of Cancer Research, Glasgow. […] All cells were cultured in RPMI-1640 Glutamax medium supplemented with 10% FCS media, 100 units/ml penicillin and 100 μg/mIstreptomycin. Cells were maintained at 37° C. in 5% CO2 in a humidified incubator.
as §4
Description for HL-60 parental: as §2, §5, §4
Description for HL-60-MDR(PGP): as §1, §2, §3, §4

Turning to `COc1cccc2c1C(=O)c1c(O)c3c(c(O)c1C2=O)C[C@@](O)(C(=O)CO)C[C@@H]3O[C@H]1C[C@H](N)[C@H](O)[C@H](C)O1` [Adriamycin, adriamycin], in the data set with A2780-ADR (PGP), half-maximal inhibition (IC50) was put at 5100 nM and the RF is 119.2. Also, in the data set with A2780-parental, the IC50 was found to be 42.8 nM.

As for `C=C(C)C1C(=O)N(c2cc(OC)c(OC)c(OC)c2)C1c1ccc(OC)c(O)c1` (centres unmarked) [Compound 3, 4-(3-Hydroxy-4-methoxy-phenyl)-3-isopropenyl-1-(3,4,5-trimethoxy-phenyl)-azetidin-2-one], the IC50 in data set [1] came to 0.019 µM.

Regarding `COc1ccc(C2C(C(C)O)C(=O)N2c2cc(OC)c(OC)c(OC)c2)cc1O` (centres unmarked) [Compound 6, 3-(1-Hydroxy-ethyl)-4-(3-hydroxy-4-methoxy-phenyl)-1-(3,4,5-trimethoxy-phenyl)-azetidin-2-one], the 50% inhibitory concentration (IC50) in data set [1] came out at 0.0376 µM.

Regarding `COc1ccc(C2C(C(O)C=Cc3ccccc3)C(=O)N2c2cc(OC)c(OC)c(OC)c2)cc1O` (centres unmarked) [Compound 7, 4-(3-Hydroxy-4-methoxy-phenyl)-3-(1-hydroxy-3-phenyl-allyl)-1-(3,4,5-trimethoxy-phenyl)-azetidin-2-one], the IC50 in data set [1] was determined as 0.0468 µM.

`COc1ccc(C2C(c3ccc(N)cc3)C(=O)N2c2cc(OC)c(OC)c(OC)c2)cc1` (centres unmarked) [Compound 9, 3-(4-Amino-phenyl)-4-(4-methoxy-phenyl)-1-(3,4,5-trimethoxyphenyl)-azetidin-2-one]: the IC50 in data set [1] was 0.05 µM.

In the case of `COc1ccc(C2C(c3ccc(O)cc3)C(=O)N2c2cc(OC)c(OC)c(OC)c2)cc1` (centres unmarked) [Compound 10, 3-(4-Hydroxy-phenyl)-4-(4-methoxy-phenyl)-1-(3,4,5-trimethoxy-phenyl)-azetidin-2-one], the melting point came to 155 °C. In addition, the IC50 in data set [1] is 0.059 µM.

Consider `COc1ccc(C2C(c3ccc(F)cc3)C(=O)N2c2cc(OC)c(OC)c(OC)c2)cc1` (centres unmarked) [Compound 11, 3-(4-Fluoro-phenyl)-4-(4-methoxy-phenyl)-1-(3,4,5-trimethoxy-phenyl)-azetidin-2-one], for which the melting point worked out at 120 °C. The IC50 in data set [1] turned out to be 0.042 µM.

Turning to `COc1ccc(C2C(c3ccccc3)C(=O)N2c2cc(OC)c(OC)c(OC)c2)cc1N` (centres unmarked) [Compound 13, 4-(3-Amino-4-methoxy-phenyl)-3-phenyl-1-(3,4,5-trimethoxy-phenyl)-azetidin-2-one], the IC50 in data set [1] turned out to be 0.065 µM.

Turning to `COc1ccc(C2C(c3ccc(O)cc3)C(=O)N2c2cc(OC)c(OC)c(OC)c2)cc1N` (centres unmarked) [Compound 15, 4-(3-Amino-4-methoxy-phenyl)-3-(4-hydroxy-phenyl)-1-(3,4,5-trimethoxy-phenyl)-azetidin-2-one], the melting point was 177 °C. Also, the IC50 in data set [1] turned out to be 0.039 µM.

With `COc1ccc(C2C(c3ccc(F)cc3)C(=O)N2c2cc(OC)c(OC)c(OC)c2)cc1O` (centres unmarked) [Compound 16, 3-(4-Fluoro-phenyl)-4-(3-hydroxy-4-methoxy-phenyl)-1-(3,4,5-trimethoxy-phenyl)-azetidin-2-one], the IC50 in data set [1] came to 0.065 µM.

For `COc1ccc(C2C(c3ccc(F)cc3)C(=O)N2c2cc(OC)c(OC)c(OC)c2)cc1N` (centres unmarked) [Compound 17, 4-(3-Amino-4-methoxy-phenyl)-3-(4-fluoro-phenyl)-1-(3,4,5-trimethoxy-phenyl)-azetidin-2-one], in data set [1], the IC50 was 0.055 µM.

The molecule `COc1ccc(C2C(c3cccs3)C(=O)N2c2cc(OC)c(OC)c(OC)c2)cc1O` (centres unmarked) [Compound 18, 4-(3-Hydroxy-4-methoxy-phenyl)-3-thiophen-2-yl-1-(3,4,5-trimethoxy-phenyl)-azetidin-2-one] yielded a melting point of 113 to 114 °C. The IC50 in data set [1] stood at 0.007 µM.

In the case of `COc1ccc(C2C(c3cccs3)C(=O)N2c2cc(OC)c(OC)c(OC)c2)cc1N` (centres unmarked) [Compound 19, 4-(3-Amino-4-methoxy-phenyl)-3-thiophen-2-yl-1-(3,4,5-trimethoxy-phenyl)-azetidin-2-one], the IC50 in data set [1] was 0.041 µM.

Take `COc1ccc(C2C(c3ccsc3)C(=O)N2c2cc(OC)c(OC)c(OC)c2)cc1O` (centres unmarked) [Compound 20, 4-(3-Hydroxy-4-methoxy-phenyl)-3-thiophen-3-yl-1-(3,4,5-trimethoxy-phenyl)-azetidin-2-one]: the melting point was in the range of 151 to 152 °C. Further, the IC50 in data set [1] was determined as 0.01 µM.

For the molecule `COc1ccc(C2C(c3ccsc3)C(=O)N2c2cc(OC)c(OC)c(OC)c2)cc1` (centres unmarked) [Compound 21, 4-(4-Methoxy-phenyl)-3-thiophen-3-yl-1-(3,4,5-trimethoxy-phenyl)-azetidin-2-one], the melting point amounted to 130 °C. Moreover, the IC50 in data set [1] came out at 0.06 µM.

For the molecule `COc1ccc(C2C(c3cccc(O)c3)C(=O)N2c2cc(OC)c(OC)c(OC)c2)cc1` (centres unmarked) [Compound 22, 3-(3-Hydroxy-phenyl)-4-(4-methoxy-phenyl)-1-(3,4,5-trimethoxy-phenyl)-azetidin-2-one], in data set [1], the IC50 amounted to 0.0689 µM.

Take `COc1ccc(C2C(c3ccc(N)cc3)C(=O)N2c2cc(OC)c(OC)c(OC)c2)cc1O` (centres unmarked) [Compound 23, 3-(4-Amino-phenyl)-4-(3-hydroxy-4-methoxy-phenyl)-1-(3,4,5-trimethoxy-phenyl)-azetidin-2-one]: the IC50 in data set [1] came out at 0.004 µM.

For the molecule `COc1ccc(C2C(c3ccc(N)cc3)C(=O)N2c2cc(OC)c(OC)c(OC)c2)cc1N` (centres unmarked) [Compound 24, 4-(3-Amino-4-methoxy-phenyl)-3-(4-amino-phenyl)-1-(3,4,5-trimethoxy-phenyl)-azetidin-2-one], the IC50 in data set [1] worked out at 0.03 µM.

On to `COc1ccc(C2CC(=O)N2c2cc(OC)c(OC)c(OC)c2)cc1` (centres unmarked) [Compound 26, 4-(4-Methoxyphenyl)-1-(3,4,5-trimethoxyphenyl)-azetidin-2-one], for which, in data set [1], the IC50 was found to be 0.039 µM.

`COc1ccc(C2C(C)C(=O)N2c2cc(OC)c(OC)c(OC)c2)cc1` (centres unmarked) [Compound 27, 4-(4-Methoxyphenyl)-3-methyl-1-(3,4,5-trimethoxyphenyl)-azetidin-2-one]: in data set [1], the IC50 came out at 0.047 µM.

For the molecule `COc1ccc(C2C(C)C(=O)N2c2cc(OC)c(OC)c(OC)c2)cc1O` (centres unmarked) [Compound 28, 4-(3-Hydroxy-4-methoxyphenyl)-3-methyl-1-(3,4,5-trimethoxyphenyl)-azetidin-2-one], in data set [1], the IC50 came to 0.01 µM.

For the molecule `COc1ccc([C@H]2[C@H](c3ccccc3)C(=O)N2c2cc(OC)c(OC)c(OC)c2)cc1OP(=O)(O)O` [Compound 29], the “compound remaining after 24 hours” value in data set [2] (pH 4), in data set [2] (pH 7.4) and in data set [2] (pH 9) was 100% in each case.

In the case of `COc1ccc(C2[C@H](c3ccccc3)C(=O)N2c2cc(OC)c(OC)c(OC)c2)cc1OC(C)=O` (some centres unmarked) [Compound 30], the results for the “compound remaining after 24 hours” value in data set [2] (pH 4), in data set [2] (pH 7.4) and in data set [2] (pH 9) were 60%, 42% and 54%, respectively.

For the molecule `COc1ccc(C2[C@H](c3ccccc3)C(=O)N2c2cc(OC)c(OC)c(OC)c2)cc1OC(=O)c1ccccc1` (some centres unmarked) [Compound 31], the entries for the “compound remaining after 24 hours” value in data set [2] (pH 4), in data set [2] (pH 7.4) and in data set [2] (pH 9) were 61%, 35% and 76%, respectively.

`CC(=O)O[C@H]1C(=O)[C@@]2(C)[C@H]([C@H](OC(=O)c3ccccc3)[C@]3(O)C[C@H](OC(=O)[C@H](O)[C@@H](NC(=O)c4ccccc4)c4ccccc4)C(C)=C1C3(C)C)[C@]1(OC(C)=O)CO[C@@H]1C[C@@H]2O` [Paclitaxel, paclitaxel]: the IC50 in the data set on A2780-ADR (PGP) was over 10000 nM; with HL-60 parental, 4.8 nM; in the data set on A2780-parental, 4.2 nM; in the data set on HL-60-MDR(PGP) it was over 10000 nM. The RF with A2780-ADR (PGP) is >2,381; in the data set on HL-60-MDR(PGP), >2,083.

Regarding `CC[C@]1(O)C[C@H]2CN(CCc3c([nH]c4ccccc34)[C@@](C(=O)OC)(c3cc4c(cc3OC)N(C=O)[C@H]3[C@@](O)(C(=O)OC)[C@H](OC(C)=O)[C@]5(CC)C=CCN6CC[C@]43[C@@H]65)C2)C1` [Vincristine, vincristine], the IC50 worked out at 1600 nM in the data set on A2780-ADR (PGP), 2.2 nM in the data set on HL-60 parental, 3.1 nM in the data set with A2780-parental and 610 nM in the data set with HL-60-MDR(PGP). Moreover, the RF in the data set on A2780-ADR (PGP) turned out to be 516; with HL-60-MDR(PGP) it was 277.3.
